Reference: ChEMBL document CHEMBL5550211 (J Med Chem, 2024)

Tests used:
[1] = Apparent permeability across apical to basolateral side in LLC-PK1 cells; assay type: ADME, cell-based, Sus scrofa; settings: pig
[2] = Substrate activity at BCRP in LLC-PK1 cells assessed as efflux ratio of apparent permeability from basolateral to apical side over apical to basolateral side; assay type: ADME, cell-based, Sus scrofa; settings: pig
[3] = target: T1, Serine/threonine-protein kinase B-raf (Homo sapiens, UniProt P15056, V600E); assay: Inhibition of BRAF V600E mutant in human A-375 cells assessed as reduction in ERK phosphorylation; assay type: cell-based
T1 sequence (P15056 2-766 V600E limits assumed): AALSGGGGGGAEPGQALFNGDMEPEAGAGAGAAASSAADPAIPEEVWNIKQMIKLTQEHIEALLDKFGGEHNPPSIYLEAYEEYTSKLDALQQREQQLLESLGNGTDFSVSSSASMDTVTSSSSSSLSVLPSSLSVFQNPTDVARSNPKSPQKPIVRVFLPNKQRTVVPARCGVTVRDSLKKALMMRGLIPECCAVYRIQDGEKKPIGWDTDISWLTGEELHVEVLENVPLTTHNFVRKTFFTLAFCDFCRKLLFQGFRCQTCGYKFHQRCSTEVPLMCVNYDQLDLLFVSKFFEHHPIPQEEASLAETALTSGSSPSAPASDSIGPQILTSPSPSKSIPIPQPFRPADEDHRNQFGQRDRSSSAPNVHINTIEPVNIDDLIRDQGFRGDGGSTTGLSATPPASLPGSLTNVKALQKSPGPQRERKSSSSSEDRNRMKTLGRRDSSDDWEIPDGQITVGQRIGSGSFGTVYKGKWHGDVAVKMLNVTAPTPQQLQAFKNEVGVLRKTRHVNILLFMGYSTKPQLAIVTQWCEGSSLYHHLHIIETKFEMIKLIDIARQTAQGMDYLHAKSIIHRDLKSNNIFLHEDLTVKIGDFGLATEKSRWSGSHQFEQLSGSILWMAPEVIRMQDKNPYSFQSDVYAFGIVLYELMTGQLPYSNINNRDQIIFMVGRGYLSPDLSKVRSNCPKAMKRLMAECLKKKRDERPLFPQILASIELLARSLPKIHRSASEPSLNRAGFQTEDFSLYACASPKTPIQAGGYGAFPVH

[4] = Substrate activity at P-gp in LLC-PK1 cells assessed as efflux ratio of apparent permeability from basolateral to apical side over apical to basolateral side; assay type: ADME, cell-based, Sus scrofa; settings: pig
[5] = target: T1, Serine/threonine-protein kinase B-raf; assay: Inhibition of 6-His tagged BRAF V600E mutant (445 to 723 residues) (unknown origin)

Papp A→B [1] [×10⁻⁶ cm/s] | Ratio [2] | IC50 [3] [nM] | Ratio [4] | IC50 [5] [nM] | Compound
22 |  |  |  |  | Cc1c(Nc2c(F)ccc(NS(=O)(=O)C3CC3)c2Cl)ccc2ncn(C)c(=O)c12
25 | 1.6 | 61.5 | 1.6 | 11.7 | CCCS(=O)(=O)Nc1ccc(F)c(Nc2ccc3ncn(C4CC4)c(=O)c3c2C)c1Cl
39 | 6 | 27.3 | 4.1 | 13.8 | CCCS(=O)(=O)Nc1ccc(F)c(Nc2ccc3ncn(C)c(=O)c3c2)c1Cl
29 | 1.1 | 93.6 | 1.5 | 46.1 | Cc1c(Nc2c(F)ccc(NS(=O)(=O)CC3CC3)c2Cl)ccc2ncn(C)c(=O)c12
27 | 1.3 | 122 | 1.6 | 50.8 | Cc1c(Nc2c(F)ccc(NS(=O)(=O)CC(C)C)c2Cl)ccc2ncn(C)c(=O)c12
19 |  |  |  |  | CCCS(=O)(=O)Nc1ccc(F)c(Sc2ccc3ncn(C)c(=O)c3c2)c1F
24 |  |  |  |  | CCCS(=O)(=O)Nc1ccc(F)c(Nc2ccc3ncn(C)c(=O)c3c2Cl)c1Cl
22 |  |  |  |  | CCCS(=O)(=O)Nc1ccc(F)c(Nc2ccc3ncn(C)c(=O)c3c2OC)c1Cl
29 | 11.7 |  | 10.1 |  | CC(C)(C)c1nc(-c2cccc(NS(=O)(=O)c3c(F)cccc3F)c2F)c(-c2ccnc(N)n2)s1 [DABRAFENIB]
26 | 21.3 | 69.1 | 11.1 | 88 | CCCS(=O)(=O)Nc1ccc(F)c(Nc2ccc3ncn(C)c(=O)c3c2)c1F
28 | 1.3 | 177 | 3.6 | 54.9 | CCCS(=O)(=O)Nc1ccc(F)c(N(C)c2ccc3ncn(C)c(=O)c3c2)c1Cl
11 |  |  | 26.3 |  | COC(=O)N[C@@H](C)CNc1nccc(-c2cn(C(C)C)nc2-c2cc(Cl)cc(NS(C)(=O)=O)c2F)n1 [ENCORAFENIB]
3 | 15.2 |  | 21.7 |  | CCCS(=O)(=O)Nc1ccc(F)c(C(=O)c2c[nH]c3ncc(-c4ccc(Cl)cc4)cc23)c1F [VEMURAFENIB]
21 | 1.6 | 285 | 1.1 | 17.5 | CCCS(=O)(=O)Nc1ccc(F)c(Nc2ccc3ncn(CC4CC4)c(=O)c3c2C)c1Cl
20 | 1.5 | 187 | 1.4 | 20 | CCCS(=O)(=O)Nc1ccc(F)c(Nc2ccc3ncn(C(C)C)c(=O)c3c2C)c1Cl
19 | 1.5 | 197 | 1.5 | 197 | CCCS(=O)(=O)Nc1ccc(F)c(N(CC)c2ccc3ncn(C)c(=O)c3c2)c1F
33 |  |  |  |  | CCCS(=O)(=O)Nc1ccc(F)c(Nc2ccc3ncn(C)c(=O)c3c2F)c1Cl
41 | 2.6 | 73.7 | 3.2 | 69.2 | CCCS(=O)(=O)Nc1ccc(F)c(N(C)c2ccc3ncn(C)c(=O)c3c2)c1F
29 |  |  |  |  | CCCS(=O)(=O)Nc1ccc(F)c(Oc2ccc3ncn(C)c(=O)c3c2)c1F
37 | 3.9 | 178 | 4.1 | 28.4 | CCCS(=O)(=O)Nc1ccc(Cl)c(N(C)c2ccc3ncn(C)c(=O)c3c2)c1F
30 | 0.9 | 27 | 0.9 | 3.61 | CCCS(=O)(=O)Nc1ccc(F)c(Nc2ccc3ncn(CC)c(=O)c3c2C)c1Cl
36 | 1.3 | 169 | 1.8 | 182 | CCS(=O)(=O)Nc1ccc(F)c(Nc2ccc3ncn(C)c(=O)c3c2C)c1Cl
